Molecules are shown by their SMILES.

The target of assay [1] is T1, human Nav1.5 channels stably expressed in HEK 293 cells (Homo sapiens, UniProt Q14524).
T1 construct: expressed in transfected cells
The experiment in a line: PatchXpress 7000 automated patch-clamp, sodium current. In kind it is cell-based. The conditions noted are these: selectivity over Nav1.5. An excerpt: (§1) To measure state and use-dependent sodium channel inhibition, test compounds were further characterized in an automated PatchXpress® assay (Molecular Devices). Two voltage-clamp protocols were used. 1) Use-dependent protocol: Cells were held at a membrane potential 20 mV negative to the potential at which ˜50% of the channels are inactivated (V0.5 inact). A train of 30 ms depolarizations to −20 mV was applied to the cells expressing Nav1.7 at a frequency of 10 Hz. […] Data was collected in the absence and presence of drug, and after drug washout. 2) A double-pulse protocol was used to measure inactivated state block. Cells were held at a potential 20 mV negative to V0.5 inact. A 8000 ms pre-pulse 7 mV positive to V0.5 inact was given followed by a hyperpolarizing 2 ms pulse to −120 mV and a 20 ms test pulse to −20 mV. Protocol was applied to cells in the absence, presence of compound and after washout. The temperature of PatchXpress instruments was maintained at 22° C. The following recording solutions were used. Internal solution (mM): 30 CsCl, 5 HEPES, 10 EGTA, 120 CsF, 5 NaF, 2MgCl2, pH=7.3 with CsOH, 324 mosmo. External solution (mM): 120 NMDG, 40 NaCl, 1 KCl, 0.5 MgCl2, 5 HEPES, 2.7 CaCl2, pH=7.5 with NMDG-OH.
(§2) For all electrophysiology experiments, offline analysis was used to correct for current rundown and to determine percent inhibition as a function of drug concentration. IC50 values were determined by fitting to the Hill equation.

The target of assay [2] is T2, human Nav1.7 channels stably expressed in HEK 293 cells (Homo sapiens, UniProt Q15858).
T2 construct: expressed in transfected cells
T2 sequence (Q15858 whole entry): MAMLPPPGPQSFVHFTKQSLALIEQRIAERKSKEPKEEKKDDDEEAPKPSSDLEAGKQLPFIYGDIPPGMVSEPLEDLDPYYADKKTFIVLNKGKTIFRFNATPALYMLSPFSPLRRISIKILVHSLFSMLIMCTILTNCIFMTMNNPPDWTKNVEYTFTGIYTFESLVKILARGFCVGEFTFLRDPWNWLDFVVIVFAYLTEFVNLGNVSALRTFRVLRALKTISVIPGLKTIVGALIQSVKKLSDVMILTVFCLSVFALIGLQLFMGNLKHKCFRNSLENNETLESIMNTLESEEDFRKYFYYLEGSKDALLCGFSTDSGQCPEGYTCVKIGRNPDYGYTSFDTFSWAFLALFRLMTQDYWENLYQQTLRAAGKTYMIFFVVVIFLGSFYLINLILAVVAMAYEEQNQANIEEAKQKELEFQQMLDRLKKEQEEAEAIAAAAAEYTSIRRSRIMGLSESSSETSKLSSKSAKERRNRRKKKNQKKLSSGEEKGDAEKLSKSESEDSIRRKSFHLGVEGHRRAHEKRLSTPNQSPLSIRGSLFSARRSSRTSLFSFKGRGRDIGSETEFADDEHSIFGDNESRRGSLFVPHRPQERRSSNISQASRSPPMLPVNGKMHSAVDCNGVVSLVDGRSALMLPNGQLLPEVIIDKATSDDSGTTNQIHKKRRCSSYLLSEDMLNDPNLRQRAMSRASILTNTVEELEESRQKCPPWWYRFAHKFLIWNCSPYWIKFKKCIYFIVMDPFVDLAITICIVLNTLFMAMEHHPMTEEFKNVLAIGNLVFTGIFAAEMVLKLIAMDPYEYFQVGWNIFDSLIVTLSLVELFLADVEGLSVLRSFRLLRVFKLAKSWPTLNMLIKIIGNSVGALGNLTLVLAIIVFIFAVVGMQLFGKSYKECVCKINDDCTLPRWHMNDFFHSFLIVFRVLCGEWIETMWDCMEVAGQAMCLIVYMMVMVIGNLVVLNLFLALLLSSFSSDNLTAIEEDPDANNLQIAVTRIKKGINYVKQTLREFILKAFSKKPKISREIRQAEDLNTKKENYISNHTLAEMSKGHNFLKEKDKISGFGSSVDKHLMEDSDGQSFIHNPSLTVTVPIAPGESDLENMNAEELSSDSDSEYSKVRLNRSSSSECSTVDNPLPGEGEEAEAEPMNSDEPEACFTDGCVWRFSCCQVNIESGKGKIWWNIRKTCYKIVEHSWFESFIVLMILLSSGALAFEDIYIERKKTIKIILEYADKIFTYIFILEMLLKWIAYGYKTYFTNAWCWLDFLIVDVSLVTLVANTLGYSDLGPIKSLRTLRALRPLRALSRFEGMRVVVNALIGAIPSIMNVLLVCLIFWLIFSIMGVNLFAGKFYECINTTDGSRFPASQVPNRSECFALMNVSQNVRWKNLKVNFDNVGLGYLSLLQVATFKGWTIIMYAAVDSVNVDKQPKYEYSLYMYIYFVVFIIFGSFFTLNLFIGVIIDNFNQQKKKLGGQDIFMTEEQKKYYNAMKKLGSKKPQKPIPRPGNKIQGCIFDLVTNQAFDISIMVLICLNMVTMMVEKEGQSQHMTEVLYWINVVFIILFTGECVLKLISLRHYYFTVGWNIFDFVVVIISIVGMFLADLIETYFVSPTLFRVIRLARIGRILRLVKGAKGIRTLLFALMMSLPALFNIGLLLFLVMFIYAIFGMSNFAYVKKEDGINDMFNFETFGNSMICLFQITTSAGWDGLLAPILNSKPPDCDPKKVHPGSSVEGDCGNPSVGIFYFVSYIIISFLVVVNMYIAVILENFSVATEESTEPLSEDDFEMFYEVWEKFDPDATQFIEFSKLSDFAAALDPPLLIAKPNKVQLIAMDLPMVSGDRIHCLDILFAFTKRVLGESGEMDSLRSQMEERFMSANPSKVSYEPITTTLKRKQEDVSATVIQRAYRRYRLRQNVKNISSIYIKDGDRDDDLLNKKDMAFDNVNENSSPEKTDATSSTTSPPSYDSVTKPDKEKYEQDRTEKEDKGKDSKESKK
Described as above. Type of assay: cell-based. As to conditions: 22° C., read-out: potency for the Nav 1.7 sodium ion channel (as measured by PatchXpress).
Excerpt: as §1, §2

T1 sequence (Q14524 whole entry): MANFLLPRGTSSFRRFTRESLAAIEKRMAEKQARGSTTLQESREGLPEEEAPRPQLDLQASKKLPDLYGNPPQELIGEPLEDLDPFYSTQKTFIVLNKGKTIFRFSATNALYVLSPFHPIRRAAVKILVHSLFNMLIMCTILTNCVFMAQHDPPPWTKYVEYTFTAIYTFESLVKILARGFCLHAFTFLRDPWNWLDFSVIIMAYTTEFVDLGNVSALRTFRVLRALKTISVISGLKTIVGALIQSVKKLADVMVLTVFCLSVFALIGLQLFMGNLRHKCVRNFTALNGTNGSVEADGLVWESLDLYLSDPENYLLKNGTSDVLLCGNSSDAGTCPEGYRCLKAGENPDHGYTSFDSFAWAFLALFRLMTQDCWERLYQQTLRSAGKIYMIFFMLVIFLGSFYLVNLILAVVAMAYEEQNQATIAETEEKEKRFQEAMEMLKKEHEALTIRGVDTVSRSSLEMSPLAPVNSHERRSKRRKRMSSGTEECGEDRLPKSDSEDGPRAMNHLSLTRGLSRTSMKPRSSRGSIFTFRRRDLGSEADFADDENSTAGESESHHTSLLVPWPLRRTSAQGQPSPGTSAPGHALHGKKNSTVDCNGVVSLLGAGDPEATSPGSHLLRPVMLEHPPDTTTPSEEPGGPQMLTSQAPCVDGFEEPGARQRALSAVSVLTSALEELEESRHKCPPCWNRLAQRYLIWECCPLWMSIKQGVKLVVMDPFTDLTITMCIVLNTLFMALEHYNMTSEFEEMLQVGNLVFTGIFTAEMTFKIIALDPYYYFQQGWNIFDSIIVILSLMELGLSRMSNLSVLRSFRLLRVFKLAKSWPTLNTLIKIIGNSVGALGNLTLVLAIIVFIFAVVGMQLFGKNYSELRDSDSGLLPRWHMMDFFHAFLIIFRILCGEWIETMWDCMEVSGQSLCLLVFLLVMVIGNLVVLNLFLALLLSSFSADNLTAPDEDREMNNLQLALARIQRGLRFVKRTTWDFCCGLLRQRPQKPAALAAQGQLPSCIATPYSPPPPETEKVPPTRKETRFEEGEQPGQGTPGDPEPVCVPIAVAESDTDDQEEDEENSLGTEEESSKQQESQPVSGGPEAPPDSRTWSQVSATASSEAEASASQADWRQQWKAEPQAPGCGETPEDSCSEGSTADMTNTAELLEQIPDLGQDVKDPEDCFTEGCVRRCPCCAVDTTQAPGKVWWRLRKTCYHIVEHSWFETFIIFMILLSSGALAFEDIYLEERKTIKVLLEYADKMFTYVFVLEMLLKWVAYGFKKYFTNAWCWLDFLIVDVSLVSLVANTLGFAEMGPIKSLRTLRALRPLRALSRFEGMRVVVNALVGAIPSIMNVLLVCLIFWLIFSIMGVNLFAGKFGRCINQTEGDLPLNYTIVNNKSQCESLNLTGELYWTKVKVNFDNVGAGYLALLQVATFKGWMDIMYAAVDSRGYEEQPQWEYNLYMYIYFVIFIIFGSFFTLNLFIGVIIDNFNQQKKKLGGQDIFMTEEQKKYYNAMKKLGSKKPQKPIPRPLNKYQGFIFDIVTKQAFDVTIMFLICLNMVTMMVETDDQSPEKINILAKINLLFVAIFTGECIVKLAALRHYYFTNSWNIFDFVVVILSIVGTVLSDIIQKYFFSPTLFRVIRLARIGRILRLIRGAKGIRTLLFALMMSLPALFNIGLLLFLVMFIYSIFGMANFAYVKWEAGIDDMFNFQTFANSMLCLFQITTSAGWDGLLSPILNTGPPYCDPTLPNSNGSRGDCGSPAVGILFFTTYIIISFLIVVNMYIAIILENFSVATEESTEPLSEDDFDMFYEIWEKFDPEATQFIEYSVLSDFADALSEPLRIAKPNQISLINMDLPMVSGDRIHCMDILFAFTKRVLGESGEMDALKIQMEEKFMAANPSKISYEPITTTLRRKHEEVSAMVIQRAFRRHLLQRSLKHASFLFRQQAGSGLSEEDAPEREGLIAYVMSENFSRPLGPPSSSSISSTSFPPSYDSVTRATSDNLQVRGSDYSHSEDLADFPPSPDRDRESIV

Take `NC1CCc2cccc(Cn3c(=O)oc4cc(S(=O)(=O)Nc5ncns5)ccc43)c2C1` (single isomer, unassigned) [Compound 23-14, (S or R)-3-[(7-amino-5,6,7,8-tetrahydronaphthalen-1-yl)methyl]-2-oxo-N-1,2,4-thiadiazol-5-yl-2,3-dihydro-1,3-benzoxazole-6-sulfonamide]: the “ratio of Nav 1.5:Nav 1.7 potency, determined by PatchXpress measurement” value (“ratio of Nav 1.5:Nav 1.7 potency” below) in assay [1] is 393. In addition, the IC50 in assay [2] came to 75 nM.
The like results for `C[C@H](c1cccc2c1CC(N)CC2)n1c(=O)oc2cc(S(=O)(=O)Nc3ncns3)c(F)cc21` (single isomer, unassigned) [Compound 23-25, (R or S)-3-[(1R)-1-(7-amino-5,6,7,8-tetrahydronaphthalen-1-yl)ethyl]-5-fluoro-2-oxo-N-1,2,4-thiadiazol-5-yl-2,3-dihydro-1,3-benzoxazole-6-sulfonamide] were, in that order, 203 and 15 nM.
For `NC1CCc2cccc(Cn3c(=O)oc4cc(S(=O)(=O)Nc5ncns5)c(F)cc43)c2C1` (single isomer, unassigned) [Compound 23-27, (S or R)-3-[(7-amino-5,6,7,8-tetrahydronaphthalen-1-yl)methyl]-5-fluoro-2-oxo-N-1,2,4-thiadiazol-5-yl-2,3-dihydro-1,3-benzoxazole-6-sulfonamide], in that order: 29 and 6 nM.
Consider `O=c1oc2cc(S(=O)(=O)Nc3nccs3)c(F)cc2n1Cc1cccc2c1CNCC2F` (single isomer, unassigned) [Compound 43-27, (R or S)-5-fluoro-3-[(4-fluoro-1,2,3,4-tetrahydroisoquinolin-8-yl)methyl]-2-oxo-N-1,3-thiazol-2-yl-2,3-dihydro-1,3-benzoxazole-6-sulfonamide], for which, in assay [1], the “ratio of Nav 1.5:Nav 1.7 potency” value amounted to 282. Moreover, in assay [2], the IC50 was 106 nM.
For `O=c1oc2cc(S(=O)(=O)Nc3nccs3)c(F)cc2n1Cc1cccc2c1CNCC2F` (single isomer, unassigned) [Compound 43-28, (S or R)-5-fluoro-3-[(4-fluoro-1,2,3,4-tetrahydroisoquinolin-8-yl)methyl]-2-oxo-N-1,3-thiazol-2-yl-2,3-dihydro-1,3-benzoxazole-6-sulfonamide], in that order: 684 and 120 nM.
The like results for `O=c1oc2cc(S(=O)(=O)Nc3ncns3)c(F)cc2n1Cc1ccccc1` [Compound 11-7, 3-benzyl-5-fluoro-2-oxo-N-1,2,4-thiadiazol-5-yl-2,3-dihydro-1,3-benzoxazole-6-sulfonamide] were, in that order, 55 and 545 nM.
Take `O=c1oc2cc(S(=O)(=O)Nc3ncns3)c(F)cc2n1C[C@H]1C[C@@H]1I` [Compound 11-9, 5-fluoro-3-{[(1R,2S)-2-iodocyclopropyl]methyl}-2-oxo-N-1,2,4-thiadiazol-5-yl-2,3-dihydro-1,3-benzoxazole-6-sulfonamide]: in assay [1], the “ratio of Nav 1.5:Nav 1.7 potency” value was found to be 56. The IC50 in assay [2] was 301 nM.
For `O=c1oc2cc(S(=O)(=O)Nc3ncns3)c(F)cc2n1CC1CC1c1ccccc1` (stereo not shown) [Compound 11-10, 5-fluoro-2-oxo-3-[(2-phenylcyclopropyl)methyl]-N-1,2,4-thiadiazol-5-yl-2,3-dihydro-1,3-benzoxazole-6-sulfonamide], in that order: 123 and 44 nM.
For `Cn1cc2cccc(Cn3c(=O)oc4cc(S(=O)(=O)Nc5ncns5)c(F)cc43)c2n1` [Compound 11-11, 5-fluoro-3-[(2-methyl-2H-indazol-7-yl)methyl]-2-oxo-N-1,2,4-thiadiazol-5-yl-2,3-dihydro-1,3-benzoxazole-6-sulfonamide], in that order: 81 and 490 nM.
Regarding `O=c1oc2cc(S(=O)(=O)Nc3ncns3)c(F)cc2n1Cc1cccc2cncn12` [Compound 11-12, 5-fluoro-3-(imidazo[1,5-a]pyridin-5-ylmethyl)-2-oxo-N-1,2,4-thiadiazol-5-yl-2,3-dihydro-1,3-benzoxazole-6-sulfonamide], the “ratio of Nav 1.5:Nav 1.7 potency” value in assay [1] came to 368. The IC50 in assay [2] came to 81 nM.
The like results for `O=c1oc2cc(S(=O)(=O)Nc3ncns3)c(F)cc2n1Cc1cccc2c1C1CC1C=C2` (stereo not shown) [Compound 11-13, 3-(1a,7b-dihydro-1H-cyclopropa[a]naphthalen-7-ylmethyl)-5-fluoro-2-oxo-N-1,2,4-thiadiazol-5-yl-2,3-dihydro-1,3-benzoxazole-6-sulfonamide] were, in that order, 50 and 49 nM.
For the compound `CC(c1cccc(-c2ccnn2C)c1)n1c(=O)oc2cc(S(=O)(=O)Nc3ncns3)c(F)cc21` (stereo not shown) [Compound 13-10, 5-fluoro-3-{1-[3-(1-methyl-1H-pyrazol-5-yl)phenyl]ethyl}-2-oxo-N-1,2,4-thiadiazol-5-yl-2,3-dihydro-1,3-benzoxazole-6-sulfonamide], in assay [1], the “ratio of Nav 1.5:Nav 1.7 potency” value was 256. Moreover, in assay [2], the IC50 was determined as 63 nM.
For the compound `O=c1oc2cc(S(=O)(=O)Nc3ncns3)c(F)cc2n1[C@H](CO)c1ccccc1` [Compound 13-12, 5-fluoro-3-[(1S)-2-hydroxy-1-phenylethyl]-2-oxo-N-1,2,4-thiadiazol-5-yl-2,3-dihydro-1,3-benzoxazole-6-sulfonamide], the “ratio of Nav 1.5:Nav 1.7 potency” value in assay [1] is recorded as above 71. For the same compound, the IC50 in assay [2] came to 422 nM.
Regarding `C[C@H](c1cccc2ccncc12)n1c(=O)oc2cc(S(=O)(=O)Nc3ncns3)ccc21` [Compound 14-7, (R)-3-(1-(isoquinolin-8-yl)ethyl)-2-oxo-N-(1,2,4-thiadiazol-5-yl)-2,3-dihydrobenzo[d]oxazole-6-sulfonamide], the “ratio of Nav 1.5:Nav 1.7 potency” value in assay [1] was 749. Moreover, the IC50 in assay [2] is 40 nM.
The like results for `C[C@H](c1cccc2ccncc12)n1c(=O)oc2cc(S(=O)(=O)Nc3ncns3)c(F)cc21` [Compound 14-8, 5-fluoro-3-[(1R)-1-isoquinolin-8-ylethyl]-2-oxo-N-1,2,4-thiadiazol-5-yl-2,3-dihydro-1,3-benzoxazole-6-sulfonamid] were, in that order, 114 and 71 nM.
The like results for `C[C@@H](c1cccc2ccncc12)n1c(=O)oc2cc(S(=O)(=O)Nc3ncns3)ccc21` [Compound 14-9, 3-[(1S)-1-isoquinolin-8-ylethyl]-2-oxo-N-1,2,4-thiadiazol-5-yl-2,3-dihydro-1,3-benzoxazole-6-sulfonamide] were, in that order, 37 and 808 nM.
As for `C[C@@H](c1cccc2ccncc12)n1c(=O)oc2cc(S(=O)(=O)Nc3ncns3)c(F)cc21` [Compound 14-10, 5-fluoro-3-[(1S)-1-isoquinolin-8-ylethyl]-2-oxo-N-1,2,4-thiadiazol-5-yl-2,3-dihydro-1,3-benzoxazole-6-sulfonamide], the “ratio of Nav 1.5:Nav 1.7 potency” value in assay [1] worked out at 27. Moreover, in assay [2], the IC50 amounted to 779 nM.
